Among the data in patent US20220009920A1 (GB005, Inc., priority 2020, published 2022) are inhibition values, retold here.

SMILES strings stand for the structures.

By inhibition is commonly meant the change of the read-out against control, counted positive when it falls.

What all share (experiment): Large panel kinase profiling
Common to all, as to type: biochemical
What all share (details): 1 μM test article, 1 mM ATP

For test [1], the target named is T1, CAMK2G (Homo sapiens, UniProt Q13555).
T1 construct: AssayQuant Technologies, Inc. (ran the panel)
Summed up: (§1)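 CSox-Sensor fluorescence readout; test article 1 μM, ATP 1 mM, 30° C.; kinetic reads at 1-min intervals, Ex 360/Em 485 nm.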

The target in test [2] is T2, CDK7 (Homo sapiens, UniProt P50613).
T2 construct: AssayQuant Technologies, Inc. (ran the panel)
Summed up:
as §1

Test [3] has as its target T3, CSNK1D/CK1D (Homo sapiens, UniProt P48730).
T3 construct: AssayQuant Technologies, Inc. (service laboratory)
In outline:
as §1

Test [4] deals with T4, EPHA1 (Homo sapiens, UniProt P21709).
T4 sequence (P21709 26-976): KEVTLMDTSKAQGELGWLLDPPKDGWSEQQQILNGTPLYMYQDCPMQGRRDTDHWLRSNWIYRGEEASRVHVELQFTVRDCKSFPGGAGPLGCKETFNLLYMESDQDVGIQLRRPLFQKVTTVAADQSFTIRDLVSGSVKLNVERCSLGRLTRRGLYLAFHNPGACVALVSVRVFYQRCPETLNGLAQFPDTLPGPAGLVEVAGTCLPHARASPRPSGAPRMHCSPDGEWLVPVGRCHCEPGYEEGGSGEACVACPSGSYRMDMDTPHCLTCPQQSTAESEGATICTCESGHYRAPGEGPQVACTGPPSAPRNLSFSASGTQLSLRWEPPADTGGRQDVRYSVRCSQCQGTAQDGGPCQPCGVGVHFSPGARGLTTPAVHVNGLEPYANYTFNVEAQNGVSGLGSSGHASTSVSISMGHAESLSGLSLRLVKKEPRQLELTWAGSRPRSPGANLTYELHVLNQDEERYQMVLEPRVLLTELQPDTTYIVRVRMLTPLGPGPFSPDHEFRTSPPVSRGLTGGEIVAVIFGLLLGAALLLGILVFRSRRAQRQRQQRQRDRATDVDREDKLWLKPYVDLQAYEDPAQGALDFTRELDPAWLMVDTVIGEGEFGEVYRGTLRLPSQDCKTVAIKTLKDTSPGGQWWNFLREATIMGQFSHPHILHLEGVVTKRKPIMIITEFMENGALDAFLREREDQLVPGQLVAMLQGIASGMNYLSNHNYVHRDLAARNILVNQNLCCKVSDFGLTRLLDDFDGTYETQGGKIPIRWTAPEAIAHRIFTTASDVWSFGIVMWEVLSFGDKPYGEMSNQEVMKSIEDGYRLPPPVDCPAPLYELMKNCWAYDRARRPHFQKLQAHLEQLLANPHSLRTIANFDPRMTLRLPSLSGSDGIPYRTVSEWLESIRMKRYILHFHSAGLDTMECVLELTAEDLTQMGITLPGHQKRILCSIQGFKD
In outline:
as §1

The target of test [5] is FGFR3 (Homo sapiens, UniProt P22607). In outline:
as §1

Test [6] concerns the target FGFR4 (Homo sapiens, UniProt P22455). In outline: as §1
Test [7] addresses T5, JAK2(JH1JH2) (Homo sapiens, UniProt O60674).
T5 construct: JAK2(JH1JH2)
Summed up: as §1

For test [8], the target named is T6, MASTL (Homo sapiens, UniProt Q96GX5).
T6 construct: AssayQuant Technologies, Inc. (assay service)
T6 sequence (Q96GX5 1-879): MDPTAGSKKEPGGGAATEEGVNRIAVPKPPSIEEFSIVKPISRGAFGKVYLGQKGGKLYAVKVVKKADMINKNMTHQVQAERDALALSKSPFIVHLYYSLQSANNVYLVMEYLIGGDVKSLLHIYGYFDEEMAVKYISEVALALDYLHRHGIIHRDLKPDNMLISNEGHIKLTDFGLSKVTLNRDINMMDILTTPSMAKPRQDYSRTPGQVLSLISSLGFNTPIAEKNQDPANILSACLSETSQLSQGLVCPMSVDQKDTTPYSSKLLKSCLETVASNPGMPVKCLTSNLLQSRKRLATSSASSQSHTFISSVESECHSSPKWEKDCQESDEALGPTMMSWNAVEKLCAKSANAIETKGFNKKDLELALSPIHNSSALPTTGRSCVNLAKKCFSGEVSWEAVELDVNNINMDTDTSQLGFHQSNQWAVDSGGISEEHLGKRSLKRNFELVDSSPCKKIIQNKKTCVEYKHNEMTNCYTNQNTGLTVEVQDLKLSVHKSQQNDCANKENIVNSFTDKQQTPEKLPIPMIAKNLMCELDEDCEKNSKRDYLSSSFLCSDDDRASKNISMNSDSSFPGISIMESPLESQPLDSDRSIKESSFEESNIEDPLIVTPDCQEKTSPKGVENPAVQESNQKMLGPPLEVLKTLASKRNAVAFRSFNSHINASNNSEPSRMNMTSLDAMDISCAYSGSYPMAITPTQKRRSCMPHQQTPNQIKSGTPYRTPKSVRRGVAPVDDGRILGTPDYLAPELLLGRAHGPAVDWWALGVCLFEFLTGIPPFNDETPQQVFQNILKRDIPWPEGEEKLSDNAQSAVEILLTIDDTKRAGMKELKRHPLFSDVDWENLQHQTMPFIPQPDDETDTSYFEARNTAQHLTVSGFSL
Summed up:
as §1

The target of test [9] is PRKACA (Homo sapiens, UniProt P17612). In outline:
as §1

In test [10] the target is PRKCA/PKCA (Homo sapiens, UniProt P17252). In outline:
as §1

Test [11] has as its target T7, SRMS (Homo sapiens, UniProt Q9H3Y6).
T7 construct: AssayQuant Technologies, Inc. (contract assay)
In outline:
as §1

The target in test [12] is T8, TEK/TIE2 (Homo sapiens, UniProt Q02763).
T8 construct: AssayQuant Technologies, Inc. (contract laboratory that ran the panel)
In outline: as §1

T8 sequence (Q02763 23-1124): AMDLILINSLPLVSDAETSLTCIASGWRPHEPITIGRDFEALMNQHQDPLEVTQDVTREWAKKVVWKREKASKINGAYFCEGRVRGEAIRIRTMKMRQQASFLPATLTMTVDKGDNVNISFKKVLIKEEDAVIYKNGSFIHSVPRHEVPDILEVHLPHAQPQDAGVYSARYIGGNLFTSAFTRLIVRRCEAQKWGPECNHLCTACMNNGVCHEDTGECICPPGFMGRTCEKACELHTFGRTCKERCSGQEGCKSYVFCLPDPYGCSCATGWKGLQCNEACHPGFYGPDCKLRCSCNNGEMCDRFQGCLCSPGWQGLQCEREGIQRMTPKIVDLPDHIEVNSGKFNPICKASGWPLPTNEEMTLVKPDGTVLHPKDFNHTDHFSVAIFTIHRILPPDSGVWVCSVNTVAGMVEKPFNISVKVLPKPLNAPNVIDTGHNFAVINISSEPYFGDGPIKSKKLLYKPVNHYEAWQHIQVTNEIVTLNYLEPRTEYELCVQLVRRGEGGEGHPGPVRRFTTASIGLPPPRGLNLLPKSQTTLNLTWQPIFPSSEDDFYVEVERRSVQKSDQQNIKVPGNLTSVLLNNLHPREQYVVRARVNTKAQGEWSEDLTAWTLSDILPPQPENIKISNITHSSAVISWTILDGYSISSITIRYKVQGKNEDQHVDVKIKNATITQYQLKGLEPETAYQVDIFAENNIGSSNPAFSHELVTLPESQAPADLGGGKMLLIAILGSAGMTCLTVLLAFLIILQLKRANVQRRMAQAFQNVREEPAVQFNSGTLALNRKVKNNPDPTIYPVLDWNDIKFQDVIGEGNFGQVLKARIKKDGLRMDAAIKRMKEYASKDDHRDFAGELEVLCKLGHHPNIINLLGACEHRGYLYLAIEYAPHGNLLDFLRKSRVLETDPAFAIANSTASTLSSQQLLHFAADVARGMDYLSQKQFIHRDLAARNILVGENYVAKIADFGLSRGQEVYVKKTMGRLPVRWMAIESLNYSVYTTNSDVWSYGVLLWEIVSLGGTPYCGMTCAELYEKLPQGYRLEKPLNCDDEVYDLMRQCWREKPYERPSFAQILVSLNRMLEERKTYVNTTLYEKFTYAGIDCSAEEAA
FGFR3, sequence (P22607 23-806, species assumed): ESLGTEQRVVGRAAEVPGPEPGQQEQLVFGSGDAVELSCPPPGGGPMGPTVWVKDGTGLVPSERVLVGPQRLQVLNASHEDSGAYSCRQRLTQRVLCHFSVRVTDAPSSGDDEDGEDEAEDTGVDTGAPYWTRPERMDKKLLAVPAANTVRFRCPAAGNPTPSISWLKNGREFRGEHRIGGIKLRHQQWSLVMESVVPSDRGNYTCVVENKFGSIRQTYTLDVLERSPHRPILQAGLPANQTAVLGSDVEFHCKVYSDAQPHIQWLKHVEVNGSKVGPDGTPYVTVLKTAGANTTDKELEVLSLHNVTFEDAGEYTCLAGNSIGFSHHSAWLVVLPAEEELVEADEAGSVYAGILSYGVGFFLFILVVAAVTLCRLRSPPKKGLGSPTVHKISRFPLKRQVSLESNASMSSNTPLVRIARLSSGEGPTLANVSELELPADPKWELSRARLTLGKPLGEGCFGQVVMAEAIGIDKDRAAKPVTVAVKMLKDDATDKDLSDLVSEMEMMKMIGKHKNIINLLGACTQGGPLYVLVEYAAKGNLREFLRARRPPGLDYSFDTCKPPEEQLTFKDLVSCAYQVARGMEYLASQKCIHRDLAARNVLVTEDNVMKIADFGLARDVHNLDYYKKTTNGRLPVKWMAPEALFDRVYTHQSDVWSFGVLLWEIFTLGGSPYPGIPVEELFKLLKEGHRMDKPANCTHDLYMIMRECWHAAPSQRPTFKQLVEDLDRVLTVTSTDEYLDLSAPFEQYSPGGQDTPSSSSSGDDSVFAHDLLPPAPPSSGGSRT
T1 sequence (Q13555 whole entry, species assumed): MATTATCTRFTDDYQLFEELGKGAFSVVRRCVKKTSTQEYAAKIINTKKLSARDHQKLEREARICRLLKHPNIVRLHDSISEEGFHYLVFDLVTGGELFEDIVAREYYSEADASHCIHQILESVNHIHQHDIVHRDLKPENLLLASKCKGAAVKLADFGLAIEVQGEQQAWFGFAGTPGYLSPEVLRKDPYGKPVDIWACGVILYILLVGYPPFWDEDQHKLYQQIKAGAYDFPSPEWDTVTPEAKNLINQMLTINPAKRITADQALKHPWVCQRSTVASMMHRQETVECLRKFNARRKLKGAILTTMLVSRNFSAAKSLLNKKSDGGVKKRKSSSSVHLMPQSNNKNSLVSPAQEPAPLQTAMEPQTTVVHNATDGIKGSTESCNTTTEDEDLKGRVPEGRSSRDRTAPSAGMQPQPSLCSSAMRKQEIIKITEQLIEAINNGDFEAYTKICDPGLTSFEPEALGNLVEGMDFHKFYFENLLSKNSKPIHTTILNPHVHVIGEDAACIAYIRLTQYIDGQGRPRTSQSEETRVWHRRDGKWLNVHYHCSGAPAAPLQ
T7 sequence (Q9H3Y6 whole entry, species assumed): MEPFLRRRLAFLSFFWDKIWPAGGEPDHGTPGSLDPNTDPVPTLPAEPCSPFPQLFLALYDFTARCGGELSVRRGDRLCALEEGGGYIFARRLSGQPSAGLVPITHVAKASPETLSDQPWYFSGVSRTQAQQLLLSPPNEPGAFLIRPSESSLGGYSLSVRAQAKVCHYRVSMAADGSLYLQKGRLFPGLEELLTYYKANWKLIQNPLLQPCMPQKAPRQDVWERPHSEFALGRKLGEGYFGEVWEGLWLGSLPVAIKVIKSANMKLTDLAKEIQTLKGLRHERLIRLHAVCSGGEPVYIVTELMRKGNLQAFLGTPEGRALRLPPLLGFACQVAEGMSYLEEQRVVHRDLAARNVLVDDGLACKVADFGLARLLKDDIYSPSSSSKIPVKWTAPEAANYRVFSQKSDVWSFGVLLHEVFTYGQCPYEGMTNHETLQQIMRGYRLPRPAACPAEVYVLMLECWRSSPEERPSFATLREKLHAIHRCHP
T5 sequence (O60674 532-1132 limits assumed, species assumed): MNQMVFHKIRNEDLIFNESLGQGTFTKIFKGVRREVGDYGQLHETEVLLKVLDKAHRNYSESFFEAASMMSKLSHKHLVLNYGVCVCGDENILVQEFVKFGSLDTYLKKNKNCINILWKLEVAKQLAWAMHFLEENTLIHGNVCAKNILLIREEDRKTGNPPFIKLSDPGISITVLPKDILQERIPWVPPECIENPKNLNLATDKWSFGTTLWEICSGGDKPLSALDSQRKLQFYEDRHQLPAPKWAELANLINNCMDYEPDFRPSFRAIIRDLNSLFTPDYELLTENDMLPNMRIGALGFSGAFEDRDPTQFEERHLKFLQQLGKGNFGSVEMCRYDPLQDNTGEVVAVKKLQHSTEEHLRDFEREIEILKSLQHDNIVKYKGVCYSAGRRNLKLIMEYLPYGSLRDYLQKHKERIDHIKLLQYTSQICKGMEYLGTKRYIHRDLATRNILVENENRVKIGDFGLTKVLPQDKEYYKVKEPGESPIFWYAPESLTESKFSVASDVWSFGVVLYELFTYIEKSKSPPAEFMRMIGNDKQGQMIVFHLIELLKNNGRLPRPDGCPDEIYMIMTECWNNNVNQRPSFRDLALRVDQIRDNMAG
T3 sequence (P48730 whole entry): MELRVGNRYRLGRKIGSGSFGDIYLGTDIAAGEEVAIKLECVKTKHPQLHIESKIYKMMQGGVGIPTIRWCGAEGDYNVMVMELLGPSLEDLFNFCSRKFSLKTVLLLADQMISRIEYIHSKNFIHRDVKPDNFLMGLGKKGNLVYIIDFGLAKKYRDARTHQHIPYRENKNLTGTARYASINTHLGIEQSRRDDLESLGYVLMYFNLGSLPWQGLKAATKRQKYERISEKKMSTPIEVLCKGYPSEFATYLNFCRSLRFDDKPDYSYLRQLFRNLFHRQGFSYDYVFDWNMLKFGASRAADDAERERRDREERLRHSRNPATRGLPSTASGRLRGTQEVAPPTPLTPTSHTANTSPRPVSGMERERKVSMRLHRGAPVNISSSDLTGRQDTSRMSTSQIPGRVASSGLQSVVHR

Regarding `C=CC(=O)N1CCC[C@@H](c2c(F)cc(C(N)=O)c3[nH]c4c(c23)CCC4)C1` [Compound 10-2, (S)-8-(1-acryloylpiperidin-3-yl)-7-fluoro-1,2,3,4-tetrahydrocyclo-penta[b]indole-5-carboxamide], the inhibition at 1 µM in [1] is -37.5%; in test [2], 14.1%; in test [3], 16.5%; in [4], 8.5%; in test [5], 18.3%; in test [6], 9.8%. In addition, the inhibition at 1 µM is -9.8% in test [7]; -10.2% in test [8]; 1% in test [9]; -3.5% in test [10]; -32% in [11]; -15.2% in test [12].
For `C=CC(=O)N1CCCC(c2c(F)cc(C(N)=O)c3[nH]c4c(c23)CCCCC4)C1` (single isomer, unassigned) [Compound 5-6], the inhibition at 1 µM in [1] is 15.7%; in [2], -10.1%; in [3], 4.2%; in test [4], 3.7%; in test [5], 24.2%; in test [6] it was 24.5%. The inhibition at 1 µM in test [7] was 1%; in [8], 2.2%; in [9], 11.4%; in test [10], 2.3%; in test [11], -10%; in [12] it was -11.2%.
Consider `C=CC(=O)N1CCC[C@@H](c2c(F)cc(C(N)=O)c3[nH]c4c(c23)CC2(CC4)CC2)C1` [Compound 6-2, (S)-5-(1-acryloylpiperidin-3-yl)-6-fluoro-1,2,4,9-tetrahydrospiro[carbazole-3,1′-cyclopropane]-8-carboxamide], for which the inhibition at 1 µM in [1] was -7.1%; in test [2], -6%; in [3], 11.7%; in test [4], 22%; in test [5], 10.5%; in test [6] it was 4.9%. The inhibition at 1 µM in [7] was -9.4%; in [8], -9%; in [9], 12.2%; in test [10], 14.7%; in [11], -35.5%; in test [12], 4.6%.
